Measured values from patent publication US20060035847A1, “Glucopyranosyloxyprazole derivatives and use thereof in medicines” (KISSEI PHARMACEUTICAL CO., LTD., priority 2000, published 2006).
pIC50: −log10 of the molar value.

Assays:
SD rats = assay: Assay for the facilitatory effect on urinary glucose excretion; assay type: in vivo; details: glucose load 2 g/kg, 24 hours urine
Protocol: Assay for the Facilitatory Effect on Urinary Glucose Excretion
(§1) As experimental animal, overnight fasted SD rats (Japan SLC. Inc., male, 7 weeks of age, 202-221 g) were used. A Test compound was suspended in 0.5% sodium carboxymethylcellulose solution at the concentration of 2 mg/mL. When homogenous suspension was not obtained in this condition, the test compound was dissolved in ethanol at the concentration of 200 mg/mL of active form and then 2 mg/mL suspension was obtained by adding this solution to 99 times volumes of 0.5% sodium carboxymethylcellulose solution. A part of this suspension was diluted with 0.5% sodium carboxymethylcellulose solution and then 0.6 and 0.2 mg/mL suspensions were prepared. After the body weights of rats were measured, the test suspension was orally administered at the dose of 5 mL/kg (1, 3 and 10 mg/kg). For control, just only 0.5% sodium carboxymethylcellulose solution was orally administered at the dose of 5 mL/kg. Immediately after this oral administration, 400 g/L glucose solution was orally administered at the dose of 5 mL/kg (2 g/kg). The oral administration was performed with gastric tube for rat and 2.5 mL syringe. The head count in one group was 3. Collection of urine was performed in metabolic cage after the glucose administration was finished. The sampling time for collection of urine was 24 hours after the glucose administration. After collection of urine was finished, the urine volume was recorded and the urinary glucose concentration was measured. The glucose concentration was measured with a kit for laboratory test: Glucose B-Test WAKO (Wako Pure Chemical Industries, Ltd.). The amount of urinary glucose excretion in 24 hours per 200 g of body weight was calculated from urine volume, urinary glucose concentration and body weight.
as §1, with “bodyweights” for “body weights”

ICR mice = assay: Acute toxicity test; assay type: in vivo; details: male ICR mice, oral 2000 mg/kg, observation until 24 hours, 5 animals in each group
Protocol: After 4 week old male ICR mice (Japan SLC. Inc., 20-25 g, 5 animals in each group) were fasted for 4 hours, the suspension (200 mg/mL) prepared by adding of 0.5% sodium carboxymethylcellulose solution to the test compound was orally administered at the dose of 10 mL/kg (2000 mg/kg). Observation was performed until 24 hours after the administration.

human SGLT2 = molecular target: T1, human SGLT2 (Homo sapiens, UniProt P31639, I433V); assay: Assay for inhibitory effect on human SGLT2 activity (methyl-α-D-glucopyranoside uptake in COS-7 cells transiently expressing human SGLT2); assay type: cell-based
T1 construct: expressed in transfected cells; host or cells: COS-7 cells (RIKEN CELL BANK RCB0539), transient, electroporation
T1 sequence (P31639 1-672 I433V): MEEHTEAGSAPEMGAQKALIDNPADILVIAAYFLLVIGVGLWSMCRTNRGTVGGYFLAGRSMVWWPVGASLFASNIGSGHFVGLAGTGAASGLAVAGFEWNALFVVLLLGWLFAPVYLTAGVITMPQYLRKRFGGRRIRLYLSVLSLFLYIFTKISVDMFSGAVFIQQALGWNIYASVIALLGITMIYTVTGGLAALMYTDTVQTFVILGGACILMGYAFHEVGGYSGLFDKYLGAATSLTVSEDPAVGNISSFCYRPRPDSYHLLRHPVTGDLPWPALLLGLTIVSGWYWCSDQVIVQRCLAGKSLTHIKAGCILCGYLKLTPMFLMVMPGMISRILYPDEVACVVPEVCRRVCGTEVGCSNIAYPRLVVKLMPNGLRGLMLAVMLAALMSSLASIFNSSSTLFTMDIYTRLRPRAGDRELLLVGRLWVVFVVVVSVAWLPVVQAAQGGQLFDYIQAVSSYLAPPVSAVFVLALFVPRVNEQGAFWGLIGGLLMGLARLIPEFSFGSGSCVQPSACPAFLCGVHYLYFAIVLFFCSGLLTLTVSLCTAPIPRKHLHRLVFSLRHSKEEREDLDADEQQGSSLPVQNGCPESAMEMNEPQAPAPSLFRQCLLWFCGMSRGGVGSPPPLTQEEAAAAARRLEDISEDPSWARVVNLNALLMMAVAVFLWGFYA
Protocol: Assay for Inhibitory Effect on Human SGLT2 Activity
1) Construction of the Plasmid Vector Expressing Human SGLT2
Preparation of the cDNA library for PCR amplification was performed by reverse transcription of a total RNA deprived from human kidney (Ori gene) with oligo dT as the primer, using SUPERSCRIPT Preamplification System (Gibco-BRL: LIFE TECHNOLOGIES). The DNA fragment coding for human SGLT2 was amplified by the PCR reaction, in which the human kidney cDNA library described above was used as the template and the following oligo nucleotides 0702F and 0712R, presented as sequence number 1 and 2 respectively, were used as the primers. The amplified DNA fragment was ligated into pCR-Blunt (Invitrogen), a vector for cloning, according to standard method of the kit. The Escherichia coli HB101 was transformed according to usual method and then selection of the transformants was performed on the LB agar medium containing 50 μg/mL of kanamycin. After plasmid DNA was extracted and purified from the one of the transformants, amplifying of the DNA fragment coding for human SGLT2 was performed by the PCR reaction, in which the following oligo nucleotides 0714F and 0715R, presented as sequence number 3 and 4 respectively, were used as the primers. The amplified DNA fragment was digested with restriction enzymes, Xho I and Hind III, and then purified with Wizard Purification System (Promega). This purified DNA fragment was inserted at into the corresponding restriction sites of pcDNA3.1 (−) Myc/His—B (Invitrogen), a vector for expressing of fusion protein. The Escherichia coli HB101 was transformed according to usual method and then selection of the transformant was performed on the LB agar medium containing 100 μg/mL of ampicillin. After plasmid DNA was extracted and purified from this transformant, the base sequence of the DNA fragment inserted at the multi-cloning sites of the vector pcDNA3.1 (−) Myc/His—B was analyzed. […] Sequentially, a clone in which valine is substituted for isoleucine-433 was obtained. This plasmid vector expressing human SGLT2 in which the peptide presented as sequence number 5 is fused to the carboxyl terminal alanine residue was designated KL29.
2) Preparation of the Cells Expressing Transiently Human SGLT2
KL29, the plasmid coding human SGLT2, was transfected into COS-7 cells (RIKEN CELL BANK RCB0539) by electroporation. Electroporation was performed with GENE PULSER II (Bio-Rad Laboratories) under the condition: 0.290 kV, 975 μF, 2×10^6 cells of COS-7 cell and 20 μg of KL29 in 500 μL of OPTI-MEM I medium (Gibco-BRL: LIFE TECHNOLOGIES) in the 0.4 cm type cuvette. After the gene transfer, the cells were harvested by centrifugation and resuspended with OPTI-MEM I medium (1 mL/cuvette). To each well in 96-wells plate, 125 μL of this cell suspension was added. After overnight culture at 37° C. under 5% CO2, 125 μL of DMEM medium which is containing 10% of fetal bovine serum (Sanko Jyunyaku), […] sodium penicillin G (Gibco-BRL: LIFE TECHNOLOGIES), 100 μg/mL streptomycin sulfate (Gibco-BRL: LIFE TECHNOLOGIES) was added to each well. These cells were cultured until the next day and then they were used for the measurement of the inhibitory activity against the uptake of methyl-α-D-glucopyranoside.
3) Measurement of the Inhibitory Activity Against the Uptake of methyl-α-D-glucopyranoside
After a test compounds was dissolved in dimethyl sulfoxide and diluted with the uptake buffer (a pH 7.4 buffer containing 140 mM sodium chloride, 2 mM potassium chloride, 1 mM calcium chloride, 1 mM magnesium chloride, 5 mM methyl-α-D-glucopyranoside, 10 mM 2-[4-(2-hydroxyethyl)-1-piperazinyl]ethane sulfonic acid and 5 mM tris(hydroxymethyl)aminomethane), each diluent was used as test sample for measurement of the inhibitory activity. […]

normal mice = details: cited from earlier work

SMILES	Amount of Urinary Glucose Excretion (SD rats; oral dose 1 mg/kg)	Amount of Urinary Glucose Excretion (SD rats; oral dose 3 mg/kg)	Amount of Urinary Glucose Excretion (SD rats; oral dose 10 mg/kg)	Death number (ICR mice)	inhibitory activity in human SGLT2 (in words) (human SGLT2)	pIC50 (human SGLT2; inhibition of methyl-α-D-glucopyranoside uptake, COS-7 cells expressing human SGLT2, 37° C., 2 hours)	amount of excreted glucose (normal mice)
CCOC(=O)OC[C@H]1O[C@@H](Oc2nn(C(C)C)c(C)c2Cc2ccc(OC(C)C)cc2)[C@H](O)[C@@H](O)[C@@H]1O [Example 1, 3-(6-O-Ethoxycarbonyl-β-D-glucopyranosyloxy)-4-[(4-isopropoxyphenyl)methyl]-1-isopropyl-5-methylpyrazole]	1.6 mg/24 hours · 200 g body weight	28.3 mg/24 hours · 200 g body weight	127.5 mg/24 hours · 200 g body weight	–	–	–	–
COC(=O)OC[C@H]1O[C@@H](Oc2nn(C(C)C)c(C)c2Cc2ccc(OC(C)C)cc2)[C@H](O)[C@@H](O)[C@@H]1O [Example 15, 4-[(4-Isopropoxyphenyl)methyl]-1-isopropyl-3-(6-O-methoxycarbonyl-β-D-glucopyranosyloxy)-5-methylpyrazole]	1.7 mg/24 hours · 200 g body weight	36.8 mg/24 hours · 200 g body weight	167.3 mg/24 hours · 200 g body weight	–	–	–	–
COC(=O)OC[C@H]1O[C@@H](Oc2n[nH]c(C)c2Cc2ccc(OC(C)C)cc2)[C@H](O)[C@@H](O)[C@@H]1O [Example 48, 4-[(4-Isopropoxyphenyl)methyl]-3-(6-O-methoxycarbonyl-β-D-glucopyranosyloxy)-5-methyl-1H-pyrazole]	–	–	–	0/5	–	–	–
CSc1ccc(Cc2c(C(F)(F)F)[nH][nH]c2=O)cc1 [WAY-123783, reference compound]	–	–	–	–	extremely weak inhibitory activity	< 4.00	increased
